{
  "source": "patent US11419814B2",
  "about": "“Transdermal compositions of ibuprofen and methods of use thereof” (Aponia Laboratories, Inc., priority 2011, dated 2022)",
  "tested_on": "EpiSkin (reconstructed human epidermis)",
  "experiment": "In vitro dermal irritation EpiSkin test (MTT viability)",
  "protocol": "The SkinEthic EpiSkin® test system has been validated by OECD test method (439) as an in vitro model to assess skin irritation potential. The test uses human keratinocytes derived from healthy donors, grown in vitro to reconstruct a functional model of the human epidermis.\nEpiSkin® units were shipped on transport agar in sterile plates of 12 individual units. Upon delivery, the condition of the EpiSkin® was assessed by checking the pH and temperature indicators. EpiSkin® units were transferred to 12 well plates containing EpiSkin® maintenance medium (2 mL). […] The negative control was Dulbecco's phosphate buffered saline (PBS) and the positive control was an aqueous solution of sodium dodecyl sulphate (SDS, 5%, w/v).\nThe formulations were applied to the skin “without dilution”. An aliquot (10 μL) of the undiluted formulations and control substances were applied to three replicate EpiSkin® tissues using a positive displacement pipette. The formulations and controls were gently spread over the entire surface of the exposed skin using the applicator tip.\nThe EpiSkin® was exposed to the formulations and control substances for 15 min±30 s. The EpiSkin® surface was then rinsed with PBS (ca 25 mL) and returned to a well containing fresh Maintenance Medium (2 mL). […]\nAfter the recovery period, EpiSkin® units were tapped dry and transferred to wells containing a solution of MTT in EpiSkin Assay Medium (2 mL, 0.3 mg/mL). […] The cell viability of each tissue was calculated from optical density absorption readings with reference to the negative controls, which were assigned the nominal value of 100% viability.\nStandard statistical techniques were used to calculate ODblank mean: the average OD of the blank (acidified isopropanol containing) wells. The corrected OD for each sample or control was calculated by subtracting the value of ODblank mean from each reading: ODcorrected=ODraw−ODblank mean\nThe % Viability for each sample and positive control was calculated as follows: % Viability=(ODcorrected/mean ODnegative controls)×100 […]",
  "note": "“And” between values parts separate entries of the source, which are not always exact repeats. Equal entries are not always repeated.",
  "data": [
    {"smiles": "CCCCCCCCCCCCOS(=O)(=O)[O-].[Na+]", "note": "[Aqueous SDS Solution (5%, w/v), sodium dodecyl sulphate]", "values": [
      {"measurement": "Mean Relative Viability per Treatment (%)", "setting": "mean of three tissues, irritant (GHS category 2) if viability is 50% or less", "value": 23.36, "unit": "%"},
      {"measurement": "Mean Relative Viability per Tissue (%)", "setting": "per replicate tissue (Rep 1-3), 15 min exposure, 42 h recovery, sulphate", "value": "19.00% and 36.63% and 14.46%"},
      {"measurement": "Relative Viability (%)", "setting": "single readings, two per replicate tissue (Rep 1-3), 10 μL undiluted, 15 min exposure, 42 h recovery, negative control = 100%, sulphate", "value": "19.05% and 18.95% and 36.18% and 37.08% and 13.81% and 15.12%"}
    ]}
  ]
}
